Biological target: Pim-1 (Homo sapiens (Human), UniProt P11309)
Assay: Pim kinase binding activity assay (Example 901), PIM-1 enzyme, Caliper microfluidic peptide phosphorylation
Type: biochemical
Settings: 20 pM PIM-1, 10 μM ATP, 1 μM FAM-peptide, 90 minutes at room temperature
Outline: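 PIM-1 at 20 pM phosphorylated 1 μM FAM-labelled Pim peptide with 10 μM ATP in HEPES pH 7.2, MgCl2, Tween 20 and DTT for 90 min at room temperature. EDTA stopped the reaction, and product and substrate were resolved by microfluidic electrophoresis (ex 488/em 530 nm). Ki was derived from substrate conversion.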

Chain of Pim-1 (P11309 whole entry): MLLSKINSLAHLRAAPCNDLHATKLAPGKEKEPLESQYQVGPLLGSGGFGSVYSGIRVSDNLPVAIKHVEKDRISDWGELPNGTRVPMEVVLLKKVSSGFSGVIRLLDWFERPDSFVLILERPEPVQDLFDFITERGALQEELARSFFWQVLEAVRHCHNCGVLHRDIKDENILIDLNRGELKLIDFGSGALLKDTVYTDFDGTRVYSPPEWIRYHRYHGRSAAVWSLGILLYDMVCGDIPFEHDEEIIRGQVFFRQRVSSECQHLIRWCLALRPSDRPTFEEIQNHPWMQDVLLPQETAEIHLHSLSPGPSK

Row | SMILES | Ki [nM]
1 | Cn1ccc(-c2n[nH]c3cnc(-c4cncc(N5CCC(N)CC5)n4)cc23)n1 [Example 233, 1-(6-(3-(1-methyl-1H-pyrazol-3-yl)-1H-pyrazolo[3,4-c]pyridin-5-yl)pyrazin-2-yl)piperidin-4-amine] | 0.051
2 | Cn1cc(-c2cc3c(-c4cccc(N5CCNCC5)n4)n[nH]c3cn2)cn1 [Example 234, 5-(1-methyl-1H-pyrazol-4-yl)-3-(6-(piperazin-1-yl)pyridin-2-yl)-1H-pyrazolo[3,4-c]pyridine] | 0.036
3 | N#CCc1cc2c(-c3cccc(N4CCNCC4)n3)n[nH]c2cn1 [Example 235, 2-(3-(6-(piperazin-1-yl)pyridin-2-yl)-1H-pyrazolo[3,4-c]pyridin-5-yl)acetonitrile] | 583
4 | N#Cc1cc(-c2n[nH]c3cnc(-c4cccnc4)cc23)cc(N2CCNCC2)c1 [Example 240, 3-(piperazin-1-yl)-5-(5-(pyridin-3-yl)-1H-pyrazolo[3,4-c]pyridin-3-yl)benzonitrile] | 5.28
5 | Cn1cc(-c2cc3c(-c4cccc(C5CCNCC5)n4)n[nH]c3cn2)cn1 [Example 247, 5-(1-methyl-1H-pyrazol-4-yl)-3-(6-(piperidin-4-yl)pyridin-2-yl)-1H-pyrazolo[3,4-c]pyridine] | 0.224
6 | Cn1cc(-c2cc3c(-c4cnn(CC(C)(C)O)c4)n[nH]c3cn2)cn1 [Example 250, 2-methyl-1-(4-(5-(1-methyl-1H-pyrazol-4-yl)-1H-pyrazolo[3,4-c]pyridin-3-yl)-1H-pyrazol-1-yl)propan-2-ol] | 0.389
7 | Cn1cc(-c2cc3c(-c4cccc(N[C@H]5CC[C@@H](N)CC5)n4)n[nH]c3cn2)cn1 [Example 251, (1s,4s)-N1-(6-(5-(1-methyl-1H-pyrazol-4-yl)-1H-pyrazolo[3,4-c]pyridin-3-yl)pyridin-2-yl)cyclohexane-1,4-diamine] | 0.04
8 | c1cncc(-c2cc3c(N4CCCC4)n[nH]c3cn2)c1 [Example 252, 5-(pyridin-3-yl)-3-(pyrrolidin-1-yl)-1H-pyrazolo[3,4-c]pyridine] | 10
9 | NC(=O)Cc1cc2c(-c3cccc(N4CCNCC4)n3)n[nH]c2cn1 [Example 253, 2-(3-(6-(piperazin-1-yl)pyridin-2-yl)-1H-pyrazolo[3,4-c]pyridin-5-yl)acetamide] | 171
10 | CN1CCN(c2n[nH]c3cnc(-c4cccnc4)cc23)C1=O [Example 254, 1-methyl-3-(5-(pyridin-3-yl)-1H-pyrazolo[3,4-c]pyridin-3-yl)imidazolidin-2-one] | 18.5
11 | CN1CCN(c2nc(-c3n[nH]c4cnc(-c5cccnc5)cc34)ccc2Cl)CC1 [Example 255, 3-(5-chloro-6-(4-methylpiperazin-1-yl)pyridin-2-yl)-5-(pyridin-3-yl)-1H-pyrazolo[3,4-c]pyridine] | 0.113
12 | c1ccc(-c2cc3c(-c4ccccn4)n[nH]c3cn2)nc1 [Example 256, 3,5-di(pyridin-2-yl)-1H-pyrazolo[3,4-c]pyridine] | 1500
13 | Cc1ccc(-c2n[nH]c3cnc(-c4cccnc4)cc23)nc1N1CCN(C)CC1 [Example 257, 3-(5-methyl-6-(4-methylpiperazin-1-yl)pyridin-2-yl)-5-(pyridin-3-yl)-1H-pyrazolo[3,4-c]pyridine] | 0.032
14 | O=C1CCCN1c1n[nH]c2cnc(-c3cccnc3)cc12 [Example 258, 1-(5-(pyridin-3-yl)-1H-pyrazolo[3,4-c]pyridin-3-yl)pyrrolidin-2-one] | 80.9
15 | CN1CC(c2cc3c(-c4ccccc4)n[nH]c3cn2)=CC1=O [Example 259, 1-methyl-4-(3-phenyl-1H-pyrazolo[3,4-c]pyridin-5-yl)-1H-pyrrol-2(5H)-one] | 920
16 | O=C1CCCCN1c1n[nH]c2cnc(-c3cccnc3)cc12 [Example 260, 1-(5-(pyridin-3-yl)-1H-pyrazolo[3,4-c]pyridin-3-yl)piperidin-2-one] | 1100
17 | CN1CC(c2cc3c(-c4ccccc4)n[nH]c3cn2)CC1=O (stereo not drawn) [Example 263, 1-methyl-4-(3-phenyl-1H-pyrazolo[3,4-c]pyridin-5-yl)pyrrolidin-2-one] | 241
18 | Cn1cc(-c2cc3c(-c4cccc(O[C@@H]5CCCNC5)n4)n[nH]c3cn2)cn1 [Example 264, (R)-5-(1-methyl-1H-pyrazol-4-yl)-3-(6-(piperidin-3-yloxy)pyridin-2-yl)-1H-pyrazolo[3,4-c]pyridine] | 0.27
19 | C1=C(c2n[nH]c3cnc(-c4cccnc4)cc23)CCCO1 [Example 281, 3-(3,4-dihydro-2H-pyran-5-yl)-5-(pyridin-3-yl)-1H-pyrazolo[3,4-c]pyridine] | 28.8
20 | C1=C(c2n[nH]c3cnc(-c4cccnc4)cc23)CCO1 [Example 284, 3-(4,5-dihydrofuran-3-yl)-5-(pyridin-3-yl)-1H-pyrazolo[3,4-c]pyridine] | 10.6
21 | Cn1cc(-c2cc3c(-c4cccc(N5CCC(N)(C(F)(F)F)C5)n4)n[nH]c3cn2)cn1 (stereo not drawn) [Example 286, 1-(6-(5-(1-methyl-1H-pyrazol-4-yl)-1H-pyrazolo[3,4-c]pyridin-3-yl)pyridin-2-yl)-3-(trifluoromethyl)pyrrolidin-3-amine] | 0.093

Continued, values first:

Row | Ki [nM] | SMILES
22 | 0.353 | CNC(=O)C1(N)CCN(c2cccc(-c3n[nH]c4cnc(-c5cccnc5)cc34)n2)CC1 [Example 236, 4-amino-N-methyl-1-(6-(5-(pyridin-3-yl)-1H-pyrazolo[3,4-c]pyridin-3-yl)pyridin-2-yl)piperidine-4-carboxamide]
23 | 0.042 | NCC[C@H]1CCCN(c2cccc(-c3n[nH]c4cnc(-c5cccnc5)cc34)n2)C1 [Example 237, (R)-2-(1-(6-(5-(pyridin-3-yl)-1H-pyrazolo[3,4-c]pyridin-3-yl)pyridin-2-yl)piperidin-3-yl)ethanamine]
24 | 0.3 | N[C@@H]1CCC[C@H](Nc2cccc(-c3n[nH]c4cnc(-c5cccnc5)cc34)n2)C1 [Example 239, (1S,3R)—N1-(6-(5-(pyridin-3-yl)-1H-pyrazolo[3,4-c]pyridin-3-yl)pyridin-2-yl)cyclohexane-1,3-diamine]
25 | 0.03 | NCC[C@@H]1CCCN(c2cccc(-c3n[nH]c4cnc(-c5cccnc5)cc34)n2)C1 [Example 242, (S)-2-(1-(6-(5-(pyridin-3-yl)-1H-pyrazolo[3,4-c]pyridin-3-yl)pyridin-2-yl)piperidin-3-yl)ethanamine]
26 | 0.049 | Cc1ccc(-c2n[nH]c3cnc(-c4cccnc4)cc23)nc1N1CCC(N)CC1 [Example 243, 1-(3-methyl-6-(5-(pyridin-3-yl)-1H-pyrazolo[3,4-c]pyridin-3-yl)pyridin-2-yl)piperidin-4-amine]
27 | 0.019 | N[C@H]1CCCN(c2nc(-c3n[nH]c4cnc(-c5cccnc5)cc34)ccc2Cl)C1 [Example 265, (S)-1-(3-chloro-6-(5-(pyridin-3-yl)-1H-pyrazolo[3,4-c]pyridin-3-yl)pyridin-2-yl)piperidin-3-amine]
28 | 0.06 | N[C@@H]1CCCN(c2nc(-c3n[nH]c4cnc(-c5cccnc5)cc34)ccc2Cl)C1 [Example 266, (R)-1-(3-chloro-6-(5-(pyridin-3-yl)-1H-pyrazolo[3,4-c]pyridin-3-yl)pyridin-2-yl)piperidin-3-amine]
29 | 0.0268 | N[C@H]1CCN(c2cccc(-c3n[nH]c4cnc(-c5cccnc5)cc34)n2)C1 [Example 268, (S)-1-(6-(5-(pyridin-3-yl)-1H-pyrazolo[3,4-c]pyridin-3-yl)pyridin-2-yl)pyrrolidin-3-amine]
30 | 0.073 | O[C@@H]1CCCN(c2cccc(-c3n[nH]c4cnc(-c5cccnc5)cc34)n2)C1 [Example 271, (R)-1-(6-(5-(pyridin-3-yl)-1H-pyrazolo[3,4-c]pyridin-3-yl)pyridin-2-yl)piperidin-3-ol]
31 | 0.149 | OC1CCN(c2cccc(-c3n[nH]c4cnc(-c5cccnc5)cc34)n2)CC1 [Example 272, 1-(6-(5-(pyridin-3-yl)-1H-pyrazolo[3,4-c]pyridin-3-yl)pyridin-2-yl)piperidin-4-ol]
32 | 0.07 | c1cncc(-c2cc3c(-c4cccc(N5CCC(C6CCNCC6)CC5)n4)n[nH]c3cn2)c1 [Example 273, 3-(6-(4,4′-bipiperidin-1-yl)pyridin-2-yl)-5-(pyridin-3-yl)-1H-pyrazolo[3,4-c]pyridine]
33 | 4.77 | Cc1ccc(-c2n[nH]c3cnc(-c4cccnc4)cc23)nc1F [Example 274, 3-(6-fluoro-5-methylpyridin-2-yl)-5-(pyridin-3-yl)-1H-pyrazolo[3,4-c]pyridine]
34 | 6.92 | Cc1ccc(-c2n[nH]c3cnc(-c4cccnc4)cc23)nc1 [Example 275, 3-(5-methylpyridin-2-yl)-5-(pyridin-3-yl)-1H-pyrazolo[3,4-c]pyridine]
35 | 0.188 | N[C@@H]1CCN(c2cccc(-c3n[nH]c4cnc(-c5cccnc5)cc34)n2)C1 [Example 276, (R)-1-(6-(5-(pyridin-3-yl)-1H-pyrazolo[3,4-c]pyridin-3-yl)pyridin-2-yl)pyrrolidin-3-amine]
36 | 0.1 | NCC1CCN(c2cccc(-c3n[nH]c4cnc(-c5cccnc5)cc34)n2)CC1 [Example 278, (1-(6-(5-(pyridin-3-yl)-1H-pyrazolo[3,4-c]pyridin-3-yl)pyridin-2-yl)piperidin-4-yl)methanamine]
37 | 0.164 | OCCN1CCN(c2cccc(-c3n[nH]c4cnc(-c5cccnc5)cc34)n2)CC1 [Example 282, 2-(4-(6-(5-(pyridin-3-yl)-1H-pyrazolo[3,4-c]pyridin-3-yl)pyridin-2-yl)piperazin-1-yl)ethanol]
38 | 0.257 | NCCCCNc1cccc(-c2n[nH]c3cnc(-c4cccnc4)cc23)n1 [Example 283, N1-(6-(5-(pyridin-3-yl)-1H-pyrazolo[3,4-c]pyridin-3-yl)pyridin-2-yl)butane-1,4-diamine]
39 | 0.0473 | CCn1cc(-c2cc3c(-c4cccc(N5CCC[C@@H](N)C5)n4)n[nH]c3cn2)cn1 [Example 285, (R)-1-(6-(5-(1-ethyl-1H-pyrazol-4-yl)-1H-pyrazolo[3,4-c]pyridin-3-yl)pyridin-2-yl)piperidin-3-amine]
